The test concerns P388 leukemia ip, CD2F1 mice, survival T/C. Put plainly: NCI In Vivo Anticancer Drug Screen. Data for tumor model P388 Leukemia (intraperitoneal) in CD2F1 (CDF1) mice. The conditions noted are these: endpoint: median survival time, higher = longer survival. The method in brief: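 Mice carrying the transplanted tumor received test compound or vehicle. Survival was recorded in each group, and the value is the treated-group measurement divided by that of the vehicle-treated control group.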

[1] abbreviates: dose: 50.0 mg/kg/injection, schedule: Q01DX005 (ip), vehicle: saline with Tween-80.
Setting [2] is: dose: 100.0 mg/kg/injection, schedule: Q01DX005 (ip), vehicle: saline with Tween-80.
[3] abbreviates: dose: 200.0 mg/kg/injection, schedule: Q01DX005 (ip), vehicle: saline with Tween-80.
The mark [4] stands for this setting: dose: 50.0 mg/kg/injection, schedule: Q01DX009 (ip), vehicle: saline with Tween-80.
The mark [5] stands for this setting: dose: 100.0 mg/kg/injection, schedule: Q01DX009 (ip), vehicle: saline with Tween-80.
Setting [6] is: dose: 200.0 mg/kg/injection, schedule: Q01DX009 (ip), vehicle: saline with Tween-80.
Setting [7] is: dose: 60.0 mg/kg/injection, schedule: Q01DX005 (ip), vehicle: saline with Tween-80.
Setting [8] is: dose: 120.0 mg/kg/injection, schedule: Q01DX005 (ip), vehicle: saline with Tween-80.
Where [9] appears, read: dose: 240.0 mg/kg/injection, schedule: Q01DX005 (ip), vehicle: saline with Tween-80.
[10] abbreviates: dose: 50.0 mg/kg/injection, schedule: Q01DX005 (ip), vehicle: Klucel (hydroxypropylcellulose) (HPC).
Where [11] appears, read: dose: 100.0 mg/kg/injection, schedule: Q01DX005 (ip), vehicle: Klucel (hydroxypropylcellulose) (HPC).
The mark [12] stands for this setting: dose: 200.0 mg/kg/injection, schedule: Q01DX005 (ip), vehicle: Klucel (hydroxypropylcellulose) (HPC).
The mark [13] stands for this setting: dose: 25.0 mg/kg/injection, schedule: Q01DX009 (ip), vehicle: saline with Tween-80.

The structures appear in SMILES notation. Several values for one entry are separate records, joined by “and”; a condition that tells them apart may be missing. Identical values can stand only once. Toxic doses and inconclusive results are not listed.

As to `Cc1ccc2nc(N/N=C/c3ccccn3)cc(C)c2c1`, the T/C is 103 % of control and 107 % of control and 111 % of control under setting [1]; 110 % of control and 114 % of control and 115 % of control under setting [2]; 110 % of control under setting [3].

Regarding `COC(=O)Nc1nc2c(OC)c(OC)c(OC)cc2[nH]1`, the T/C was 97 % of control (dose: 12.5 mg/kg/injection, schedule: Q01DX005 (ip), vehicle: other); 100 % of control (dose: 25.0 mg/kg/injection, schedule: Q01DX005 (ip), vehicle: other); 100 % of control (dose: 50.0 mg/kg/injection, schedule: Q01DX005 (ip), vehicle: other); 102 % of control (dose: 100.0 mg/kg/injection, schedule: Q01DX005 (ip), vehicle: other).

Take `O=C1CSC(c2ccoc2)N1N1C(=O)CSC1c1ccoc1` (stereo not drawn): the T/C is 90 % of control under setting [1], 87 % of control under setting [2] and 90 % of control under setting [3].

Turning to `CC(O)C(O)C(O)C(C=O)OC1OC(C)C(O)C(O)C1O` (stereo not drawn), the T/C reads like this: (dose: 2.5 mg/kg/injection, schedule: Q01DX005 (ip), vehicle: saline + alcohol) 99 % of control; (dose: 5.0 mg/kg/injection, schedule: Q01DX005 (ip), vehicle: saline + alcohol) 96 % of control; (dose: 10.0 mg/kg/injection, schedule: Q01DX005 (ip), vehicle: saline + alcohol) 110 % of control; (dose: 20.0 mg/kg/injection, schedule: Q01DX005 (ip), vehicle: saline + alcohol) 91 % of control.

In the case of `ClC1c2ccccc2Cc2cccnc21` (stereo not drawn), the T/C under setting [4] is 102 % of control, the T/C under setting [5] is 101 % of control and the T/C under setting [6] was 95 % of control.

As to `COc1ccc(C2CC(=O)CC2c2ccc(OC)cc2)cc1` (stereo not drawn), the T/C is, setting by setting: (dose: 50.0 mg/kg/injection, schedule: Q01DX001 (ip), vehicle: Klucel (hydroxypropylcellulose) (HPC)) 99 % of control; (dose: 100.0 mg/kg/injection, schedule: Q01DX001 (ip), vehicle: Klucel (hydroxypropylcellulose) (HPC)) 100 % of control; (dose: 200.0 mg/kg/injection, schedule: Q01DX001 (ip), vehicle: Klucel (hydroxypropylcellulose) (HPC)) 100 % of control.

Regarding `[O-]c1ccc[n+]2c1sc1ncccc12` (tested in a mixture with another compound), the T/C was 107 % of control under setting [1], 107 % of control under setting [2] and 105 % of control under setting [3].

As to `CCOP(=O)(Nc1ccc(C)cc1C)OCC`, the T/C is, setting by setting: (dose: 50.0 mg/kg/injection, schedule: Q01DX009 (ip), vehicle: saline) 100 % of control; (dose: 100.0 mg/kg/injection, schedule: Q01DX001 (ip), vehicle: saline) 103 % of control; (dose: 100.0 mg/kg/injection, schedule: Q01DX009 (ip), vehicle: saline) 104 % of control; (dose: 200.0 mg/kg/injection, schedule: Q01DX001 (ip), vehicle: saline) 107 % of control; (dose: 200.0 mg/kg/injection, schedule: Q01DX009 (ip), vehicle: saline) 99 % of control; (dose: 400.0 mg/kg/injection, schedule: Q01DX001 (ip), vehicle: saline) 100 % of control.

`NC(CSCCc1ccncc1)C(=O)O` (stereo not drawn): the T/C was 103 % of control (dose: 6.25 mg/kg/injection, schedule: Q01DX009 (ip), vehicle: saline); 105 % of control (dose: 12.5 mg/kg/injection, schedule: Q01DX009 (ip), vehicle: saline); 96 % of control (dose: 25.0 mg/kg/injection, schedule: Q01DX009 (ip), vehicle: saline).

As for `Nc1nccc(CC(O)(c2ccccc2)c2ccccc2)n1`, the T/C by setting is: (dose: 15.0 mg/kg/injection, schedule: Q01DX005 (ip), vehicle: saline with Tween-80) 102 % of control; (dose: 30.0 mg/kg/injection, schedule: Q01DX005 (ip), vehicle: saline with Tween-80) 102 % of control; under setting [7], 99 % of control and 100 % of control; under setting [8], 95 % of control; under setting [9], 87 % of control.

As for `CS(=O)(=O)CS(=O)(=O)OCCBr`, the T/C is 98 % of control (dose: 12.5 mg/kg/injection, schedule: Q01DX005 (ip), vehicle: saline with Tween-80); 123 % of control (dose: 25.0 mg/kg/injection, schedule: Q01DX005 (ip), vehicle: saline with Tween-80); 159 % of control under setting [1]; 226 % of control under setting [2].

As for `CC1C=Cc2ccccc2NC1C` (stereo not drawn), the T/C runs as follows: under setting [7], 101 % of control; under setting [8], 102 % of control; under setting [9], 97 % of control.

Consider `O=C1NS(=O)(=O)Oc2ccccc2O1`, for which the T/C is, setting by setting: under setting [10], 107 % of control; under setting [11], 100 % of control; under setting [12], 95 % of control.

On to `N#Cc1ccc(-c2nn[nH]n2)cc1`, for which the T/C was 102 % of control under setting [10], 95 % of control under setting [11] and 96 % of control under setting [12].

For `CN(Nc1ccnc(=O)[nH]1)c1ccccc1`, the T/C is 105 % of control under setting [7], 102 % of control under setting [8] and 93 % of control under setting [9].

Consider `COc1ccccc1CC(N)c1nn[nH]n1` (stereo not drawn), for which the T/C under setting [13] is 96 % of control; the T/C under setting [4] was 98 % of control and 99 % of control and 101 % of control; the T/C under setting [5] is 104 % of control and 89 % of control and 96 % of control; the T/C under setting [6] was 91 % of control and 97 % of control; the T/C (dose: 400.0 mg/kg/injection, schedule: Q01DX009 (ip), vehicle: saline with Tween-80) is 96 % of control.

On to `Clc1nnc(Cl)s1`, for which the T/C is 96 % of control under setting [13], 95 % of control under setting [4] and 101 % of control under setting [5].

Consider `CC(C)(C)COSc1ccccc1`, for which the T/C (dose: 100.0 mg/kg/injection, schedule: Q04DX003 (ip), vehicle: saline with Tween-80) was 106 % of control.

As for `O=C1CCSC(=S)N1c1ccc(F)cc1`, the T/C reads like this: (dose: 50.0 mg/kg/injection, schedule: Q01DX009 (ip), vehicle: suspension in saline) 99 % of control; (dose: 100.0 mg/kg/injection, schedule: Q01DX009 (ip), vehicle: suspension in saline) 106 % of control; (dose: 200.0 mg/kg/injection, schedule: Q01DX009 (ip), vehicle: suspension in saline) 90 % of control.

On to `CC(C)=CC(=O)CC(O)(C(F)(F)F)C(F)(F)Cl` (stereo not drawn), for which, under setting [13], the T/C was 109 % of control.

With `O=[N+]([O-])c1cn[n+]([O-])c2ccccc12`, the T/C by setting is: (dose: 12.5 mg/kg/injection, schedule: Q01DX009 (ip), vehicle: saline with Tween-80) 119 % of control; under setting [4], 86 % of control.

For the origin of these results see PubChem BioAssay AID330 (DTP/NCI, 2004).
